Reference: patent publication US5637617A, “Methods for use of GABAa receptor GABAergic compounds” (The Regents of the University of California, priority 1994, dated 1997)

Tested on: phosphoinositide/Ca2+ pathway
Test: Direct membrane current responses of oocytes to fenamates
Assay type: cell-based, Xenopus laevis
Settings: 10-100 μM; in some oocytes

Row | SMILES | direct membrane current responses
1 | Cc1ccc(Cl)c(Nc2ccccc2C(=O)O)c1Cl [Meclofenamate, Meclofenamic acid] | able to elicit membrane current responses
2 | Cc1cccc(Nc2ccccc2C(=O)O)c1C [Mefenamic acid] | able to elicit membrane current responses
